The text below walks through data of BindingDB's records for doi:10.1021/jm950807f (University of Minnesota, 1996).

The test is described as follows: Binding affinity against Delta Opioid receptor in Guinea pig brain membranes.

Broadly, the Ki is a dissociation constant, usually derived from enzyme kinetics or from competition with a known ligand.

On to `NC1=NC([C@]2(N)CC[C@@]3(O)[C@H]4Cc5ccc(O)c6c5C3(CCN4CC3CC3)[C@H]2O6)=N[C@]12CC[C@@]1(O)[C@H]3Cc4ccc(O)c5c4C1(CCN3CC1CC1)[C@H]2O5` [5-amino-2,4(Bis-4-cyclopropylmethyl-10,17-dihydroxy-(1S,5R,13R,17S)-12-oxa-4-azapentacyclo[9.6.1.01,13.05,17.07,18]octadeca-7(18),8,10-trien-14-one) imidazole], for which the affinity corresponds to a Ki of 183 nM. This lies in the sub-micromolar range.

As to `N[C@@]1(C2=N[C@]3(CC[C@@]4(O)[C@H]5Cc6ccc(O)c7c6C4(CCN5CC4CC4)[C@H]3O7)C(=O)N2)CC[C@@]2(O)[C@H]3Cc4ccc(O)c5c4C2(CCN3CC2CC2)[C@H]1O5` [(4S,5'R,13'R,17'S)-2-[(5R,13R,14R,17S)-14-amino-4-(cyclopropylmethyl)-10,17-dihydroxy-12-oxa-4-azapentacyclo[9.6.1.0^{1,13}.0^{5,17}.0^{7,18}]octadeca-7(18),8,10-trien-14-yl]-4'-(cyclopropylmethyl)-10',17'-dihydroxy-3,5-dihydro-12'-oxa-4'-azaspiro[imidazole-4,14'-pentacyclo[9.6.1.0^{1,13}.0^{5,17}.0^{7,18}]octadecane]-7',9',11'(18')-trien-5-one], the Ki turned out to be 1.24 nM. This Ki is about 150-fold lower than that of the compound before.
